# Source: patent EP4356928A1, “NUCLEOSIDE DIPHOSPHATE OR DIPHOSPHONATE PRODRUGS, OR NUCLEOSIDE ANALOGUE DIPHOSPHATE OR DIPHOSPHONATE PRODRUGS” (Universität Hamburg, priority 2022, dated 2024)
# Test system: CD4^+ T-cell (CEM)
# Assay: Cytotoxicity: inhibition of CD4+ T-cell (CEM) proliferation
# Conditions: ratio between cell toxicity (CC50) and EC50 CEM/TK-
# Experimental: (§1) In addition, a selectivity index (SI) was determined. The selectivity index is the ratio between cell toxicity and […], the ratio between cell toxicity (see Table 4) and EC50 CEM/TK^- (see right column of Table 3).
# (§2) Table 4: Cytotoxicity (CC50 [µM]) and selectivity index (SI) of tested prodrug compounds.
row,Structure (SMILES),Selectivity index (SI)
1,"Nc1nc(NC2CC2)c2ncn([C@H]3C=C[C@@H](CO)C3)c2n1 [ABC, abacavir, reference compound]",>50
2,"Cc1cn([C@H]2C[C@H](N=[N+]=[N-])[C@@H](CO)O2)c(=O)[nH]c1=O [AZT, zidovudine, reference compound]",>1
3,CCCCCCCCCCCCCCCCCCOP(=O)(OCC(CC)CCCC)OP(=O)(O)OC[C@@H]1C=C[C@H](n2cc(C)c(=O)[nH]c2=O)O1 (stereo partly drawn) [No 17],4226
4,CCCCCCCCCCCCCCCCCCP(=O)(OCCCC)OP(=O)(O)OC[C@@H]1C=C[C@H](n2cc(C)c(=O)[nH]c2=O)O1 (stereo partly drawn) [No 18],20309
5,CCCCCCCCCCCCCCCCCCOP(=O)(OCCCC)OP(=O)(O)OC[C@H]1O[C@@H](n2cc(C)c(=O)[nH]c2=O)C[C@@H]1N=[N+]=[N-] (stereo partly drawn) [No 19],1112
6,CCCCCCCCCCCCCCCCCCP(=O)(OCCCC)OP(=O)(O)OC[C@H]1O[C@@H](n2cc(C)c(=O)[nH]c2=O)C[C@@H]1N=[N+]=[N-] (stereo partly drawn) [No 20],487
7,CCCCCCCCCCCCCCCCCCOP(=O)(OCCCC)OP(=O)(O)OC[C@H]1O[C@@H](n2cc(C)c(=O)[nH]c2=O)C[C@@H]1F (stereo partly drawn) [No 21],3447

# Test system: not listed separately
# Assay: as above
# Conditions: human
# Experimental: as §1, §2
row,Structure (SMILES),CC50 [nM]
1,"Nc1nc(NC2CC2)c2ncn([C@H]3C=C[C@@H](CO)C3)c2n1 [ABC, abacavir, reference compound]",> 100000
2,"Cc1cn([C@H]2C[C@H](N=[N+]=[N-])[C@@H](CO)O2)c(=O)[nH]c1=O [AZT, zidovudine, reference compound]",> 100000

# Same assay, conditions: human, cem cells
row,Structure (SMILES),CC50 [nM]
1,CCCCCCCCCCCCCCCCCCOP(=O)(OCC(CC)CCCC)OP(=O)(O)OC[C@@H]1C=C[C@H](n2cc(C)c(=O)[nH]c2=O)O1 (stereo partly drawn) [No 17],46500
2,CCCCCCCCCCCCCCCCCCP(=O)(OCCCC)OP(=O)(O)OC[C@@H]1C=C[C@H](n2cc(C)c(=O)[nH]c2=O)O1 (stereo partly drawn) [No 18],42600
3,CCCCCCCCCCCCCCCCCCOP(=O)(OCCCC)OP(=O)(O)OC[C@H]1O[C@@H](n2cc(C)c(=O)[nH]c2=O)C[C@@H]1N=[N+]=[N-] (stereo partly drawn) [No 19],47800
4,CCCCCCCCCCCCCCCCCCP(=O)(OCCCC)OP(=O)(O)OC[C@H]1O[C@@H](n2cc(C)c(=O)[nH]c2=O)C[C@@H]1N=[N+]=[N-] (stereo partly drawn) [No 20],82700
5,CCCCCCCCCCCCCCCCCCOP(=O)(OCCCC)OP(=O)(O)OC[C@H]1O[C@@H](n2cc(C)c(=O)[nH]c2=O)C[C@@H]1F (stereo partly drawn) [No 21],58600 ± 19400

# Test system: not listed separately
# Assay: Stability (hydrolysis half-life) in CEM/0 cell extracts, RP-18 HPLC
# Format: in vitro ADME
# Conditions: human, read-out: Half-lives CEM T cell extracts (converted)
# Experimental: (§3) Stability tests regarding a number of differently substituted β-phosphate and β-phosphonate nucleoside prodrugs were conducted. The chemical and biological stability was tested in different media (phosphate-buffered saline PBS (pH 7.3), pig liver esterase (PLE), CEM cell extracts) and rated by determining the half-live of these compounds. The products of the respective hydrolysis were detected by analytical RP-18 HPLC.
# (§4) Results of the hydrolysis experiments in different media (PBS (pH = 7.3), PLE (pig liver esterase) in PBS, or CEM-T cell extracts) are shown in Table 2.
# (§5) Table 2: Half-lives (in hours) of the β-phosph(on)ate prodrug compounds of the invention in phosphate buffer saline (PBS, pH 7.3), PLE (100 units/mL pig liver esterase in PBS) and CEM/0 cell extracts. n.d. = not determined.
row,Structure (SMILES),half-life [h]
1,CCCCCCCCCCCCCCCCCCP(=O)(OCCCC)OP(=O)(O)OC[C@@H]1C=C[C@H](n2cc(C)c(=O)[nH]c2=O)O1 (stereo partly drawn) [No 18],> 40
2,CCCCCCCCCCCCCCCCCCOP(=O)(OCCCC)OP(=O)(O)OC[C@H]1O[C@@H](n2cc(C)c(=O)[nH]c2=O)C[C@@H]1N=[N+]=[N-] (stereo partly drawn) [No 19],> 8
3,CCCCCCCCCCCCCCCCCCP(=O)(OCCCC)OP(=O)(O)OC[C@H]1O[C@@H](n2cc(C)c(=O)[nH]c2=O)C[C@@H]1N=[N+]=[N-] (stereo partly drawn) [No 20],> 18
4,CCCCCCCCCCCCCCCCCCOP(=O)(OCCCC)OP(=O)(O)OC[C@H]1O[C@@H](n2cc(C)c(=O)[nH]c2=O)C[C@@H]1F (stereo partly drawn) [No 21],> 10

# Test system: HIV-2 (ROD)
# Assay: Inhibition of HIV-2 replication in thymidine kinase-deficient CEM/TK- cell cultures
# Format: cell-based
# Conditions: Human immunodeficiency virus 2, CEM-TK(-), read-out: Antiviral activity EC50 CEM/TK^- HIV-2 (ROD)
# Experimental: (§6) All β-phosph(on)ate prodrug compounds were evaluated for their activity to inhibit the replication of HIV in HIV-1- and HIV-2-infected wild-type (CEM/0) cell cultures and in HIV-2-infected mutant thymidine kinase-deficient (CEM/TK^-) cell cultures (see Table 3).
# (§7) Antiviral activity was determined in CD4^+ T-lymphocytes: 50% effective concentration (EC50 [µM]).
row,Structure (SMILES),EC50 [nM]
1,"Nc1nc(NC2CC2)c2ncn([C@H]3C=C[C@@H](CO)C3)c2n1 [ABC, abacavir, reference compound]",1980 ± 860
2,"Cc1cn([C@H]2C[C@H](N=[N+]=[N-])[C@@H](CO)O2)c(=O)[nH]c1=O [AZT, zidovudine, reference compound]",> 100000
3,CCCCCCCCCCCCCCCCCCOP(=O)(OCC(CC)CCCC)OP(=O)(O)OC[C@@H]1C=C[C@H](n2cc(C)c(=O)[nH]c2=O)O1 (stereo partly drawn) [No 17],11 ± 0.71
4,CCCCCCCCCCCCCCCCCCP(=O)(OCCCC)OP(=O)(O)OC[C@@H]1C=C[C@H](n2cc(C)c(=O)[nH]c2=O)O1 (stereo partly drawn) [No 18],2.1 ± 3.4
5,CCCCCCCCCCCCCCCCCCOP(=O)(OCCCC)OP(=O)(O)OC[C@H]1O[C@@H](n2cc(C)c(=O)[nH]c2=O)C[C@@H]1N=[N+]=[N-] (stereo partly drawn) [No 19],43 ± 48
6,CCCCCCCCCCCCCCCCCCP(=O)(OCCCC)OP(=O)(O)OC[C@H]1O[C@@H](n2cc(C)c(=O)[nH]c2=O)C[C@@H]1N=[N+]=[N-] (stereo partly drawn) [No 20],170 ± 130
7,CCCCCCCCCCCCCCCCCCOP(=O)(OCCCC)OP(=O)(O)OC[C@H]1O[C@@H](n2cc(C)c(=O)[nH]c2=O)C[C@@H]1F (stereo partly drawn) [No 21],17 ± 16

# Test system: HIV-2 (ROD)
# Assay: Inhibition of HIV-2 replication in wild-type CEM/0 cell cultures
# Format: cell-based
# Conditions: Human immunodeficiency virus 2, CCRF-CEM, read-out: Antiviral activity EC50 HIV-2 (ROD)
# Experimental: as §6, §7
row,Structure (SMILES),EC50 [nM]
1,"Cc1cn([C@H]2C[C@H](N=[N+]=[N-])[C@@H](CO)O2)c(=O)[nH]c1=O [AZT, zidovudine, reference compound]",3.4 ± 2.1
2,CCCCCCCCCCCCCCCCCCOP(=O)(OCC(CC)CCCC)OP(=O)(O)OC[C@@H]1C=C[C@H](n2cc(C)c(=O)[nH]c2=O)O1 (stereo partly drawn) [No 17],45 ± 46
3,CCCCCCCCCCCCCCCCCCP(=O)(OCCCC)OP(=O)(O)OC[C@@H]1C=C[C@H](n2cc(C)c(=O)[nH]c2=O)O1 (stereo partly drawn) [No 18],16 ± 8.3
4,CCCCCCCCCCCCCCCCCCOP(=O)(OCCCC)OP(=O)(O)OC[C@H]1O[C@@H](n2cc(C)c(=O)[nH]c2=O)C[C@@H]1N=[N+]=[N-] (stereo partly drawn) [No 19],25 ± 9
5,CCCCCCCCCCCCCCCCCCP(=O)(OCCCC)OP(=O)(O)OC[C@H]1O[C@@H](n2cc(C)c(=O)[nH]c2=O)C[C@@H]1N=[N+]=[N-] (stereo partly drawn) [No 20],20 ± 8
6,CCCCCCCCCCCCCCCCCCOP(=O)(OCCCC)OP(=O)(O)OC[C@H]1O[C@@H](n2cc(C)c(=O)[nH]c2=O)C[C@@H]1F (stereo partly drawn) [No 21],40 ± 28

# Same assay, conditions: Human immunodeficiency virus 2, CCRF-CEM; CD4+ T-lymphocytes (CEM/0); mean ±SD of n=2-3; read-out: Antiviral activity EC50 HIV-2 (ROD)
row,Structure (SMILES),EC50 [nM]
1,"Nc1nc(NC2CC2)c2ncn([C@H]3C=C[C@@H](CO)C3)c2n1 [ABC, abacavir, reference compound]",3510 ± 3250

# Test system: HIV-1 (HE)
# Assay: Inhibition of HIV-1 replication in wild-type CEM/0 cell cultures
# Format: cell-based
# Conditions: Human immunodeficiency virus 1, CCRF-CEM, read-out: Antiviral activity EC50 HIV-1 (HE)
# Experimental: as §6, §7
row,Structure (SMILES),EC50 [nM]
1,CCCCCCCCCCCCCCCCCCOP(=O)(OCC(CC)CCCC)OP(=O)(O)OC[C@@H]1C=C[C@H](n2cc(C)c(=O)[nH]c2=O)O1 (stereo partly drawn) [No 17],71 ± 52
2,CCCCCCCCCCCCCCCCCCP(=O)(OCCCC)OP(=O)(O)OC[C@@H]1C=C[C@H](n2cc(C)c(=O)[nH]c2=O)O1 (stereo partly drawn) [No 18],31 ± 27
3,CCCCCCCCCCCCCCCCCCOP(=O)(OCCCC)OP(=O)(O)OC[C@H]1O[C@@H](n2cc(C)c(=O)[nH]c2=O)C[C@@H]1N=[N+]=[N-] (stereo partly drawn) [No 19],58 ± 50
4,CCCCCCCCCCCCCCCCCCP(=O)(OCCCC)OP(=O)(O)OC[C@H]1O[C@@H](n2cc(C)c(=O)[nH]c2=O)C[C@@H]1N=[N+]=[N-] (stereo partly drawn) [No 20],87 ± 55
5,CCCCCCCCCCCCCCCCCCOP(=O)(OCCCC)OP(=O)(O)OC[C@H]1O[C@@H](n2cc(C)c(=O)[nH]c2=O)C[C@@H]1F (stereo partly drawn) [No 21],6.7 ± 2.1

# Same assay, conditions: Human immunodeficiency virus 1, CCRF-CEM; CD4+ T-lymphocytes (CEM/0); mean ±SD of n=2-3; read-out: Antiviral activity EC50 HIV-1 (HE)
row,Structure (SMILES),EC50 [nM]
1,"Nc1nc(NC2CC2)c2ncn([C@H]3C=C[C@@H](CO)C3)c2n1 [ABC, abacavir, reference compound]",9390 ± 2450
2,"Cc1cn([C@H]2C[C@H](N=[N+]=[N-])[C@@H](CO)O2)c(=O)[nH]c1=O [AZT, zidovudine, reference compound]",14 ± 8.5

# Test system: not listed separately
# Assay: Stability (hydrolysis half-life) against pig liver esterase in PBS, RP-18 HPLC
# Format: in vitro ADME
# Conditions: pH 7.3; 100 units/mL pig liver esterase in PBS; read-out: Half-lives PLE (converted)
# Experimental: as §3, §4, §5
row,Structure (SMILES),half-life [h]
1,CCCCCCCCCCCCCCCCCCP(=O)(OCCCC)OP(=O)(O)OC[C@@H]1C=C[C@H](n2cc(C)c(=O)[nH]c2=O)O1 (stereo partly drawn) [No 18],> 150
2,CCCCCCCCCCCCCCCCCCOP(=O)(OCCCC)OP(=O)(O)OC[C@H]1O[C@@H](n2cc(C)c(=O)[nH]c2=O)C[C@@H]1N=[N+]=[N-] (stereo partly drawn) [No 19],> 150
3,CCCCCCCCCCCCCCCCCCP(=O)(OCCCC)OP(=O)(O)OC[C@H]1O[C@@H](n2cc(C)c(=O)[nH]c2=O)C[C@@H]1N=[N+]=[N-] (stereo partly drawn) [No 20],> 150
4,CCCCCCCCCCCCCCCCCCOP(=O)(OCCCC)OP(=O)(O)OC[C@H]1O[C@@H](n2cc(C)c(=O)[nH]c2=O)C[C@@H]1F (stereo partly drawn) [No 21],> 150

# Test system: not listed separately
# Assay: Chemical stability (hydrolysis half-life) in phosphate-buffered saline, RP-18 HPLC
# Format: physicochemical
# Conditions: phosphate buffer saline (PBS, pH 7.3); read-out: Half-lives PBS (converted)
# Experimental: as §3, §4, §5
row,Structure (SMILES),half-life [days]
1,CCCCCCCCCCCCCCCCCCOP(=O)(OCC(CC)CCCC)OP(=O)(O)OC[C@@H]1C=C[C@H](n2cc(C)c(=O)[nH]c2=O)O1 (stereo partly drawn) [No 17],> 41.7
2,CCCCCCCCCCCCCCCCCCP(=O)(OCCCC)OP(=O)(O)OC[C@@H]1C=C[C@H](n2cc(C)c(=O)[nH]c2=O)O1 (stereo partly drawn) [No 18],> 125
3,CCCCCCCCCCCCCCCCCCOP(=O)(OCCCC)OP(=O)(O)OC[C@H]1O[C@@H](n2cc(C)c(=O)[nH]c2=O)C[C@@H]1N=[N+]=[N-] (stereo partly drawn) [No 19],42.8
4,CCCCCCCCCCCCCCCCCCP(=O)(OCCCC)OP(=O)(O)OC[C@H]1O[C@@H](n2cc(C)c(=O)[nH]c2=O)C[C@@H]1N=[N+]=[N-] (stereo partly drawn) [No 20],> 83.3
5,CCCCCCCCCCCCCCCCCCOP(=O)(OCCCC)OP(=O)(O)OC[C@H]1O[C@@H](n2cc(C)c(=O)[nH]c2=O)C[C@@H]1F (stereo partly drawn) [No 21],> 41.7
